According to patent publication US8519154B2, “Method for treatment of bronchial asthma” (Council of Scientific & Industrial Research, priority 2011, dated 2013):

How the values were obtained:
[1] = tested on: mice; test: Charcoal meal transit time; format: in vivo
Procedure: […] charcoal suspension (20 ml/kg prepared as a 5% solution in 10% gum acacia) was administered perorally 60 min after D8 administration (perorally). After 30 min, charcoal meal administration small intestines were excised and aligned parallel to a ruler. Ratio of the distance traveled by the charcoal meal to the total length of the small intestine was determined for the control (untreated) and Compound I treated mice [Ali, B. H. Bashir, A A. The effect of alpha 2-receptor agonists and antagonists on gastro-intestinal transit time. Clinical and Experimental Pharmacology and Physiology, 20 (1993) 1-6].

[2] = tested on: mice; test: Analgesic activity by hot plate method; format: in vivo
Procedure: Analgesic activity was carried out by Hot Plate method. The response time for paw licking or jumping on the heated plate of analgesiometer (55±1° C.). (Socrel, Ugo Basile, Italy) was taken as the reaction time. A comparison of reaction time (in seconds) between control (untreated) and Compound I treated mice was made for a group of 6 animals in each test group [Eddy, N B., Leimbach, D., Synthetic analgesics, II. Dithienylbutenyl- and dithienylbutylamines. J. Pharmacol. Exp. Ther. 107 (1953) 385-393].
The time for hind paw licking or jumping on the heated plate of analgesiometer (Socrel, ugo basile, Italy) was taken as the reaction time.

[3] = target: CYP 3A4 (liver) (Homo sapiens, UniProt P08684); test: Metabolism by CYP 3A4; format: in vitro ADME
Chain of CYP 3A4 (liver) (P08684 whole entry, species assumed): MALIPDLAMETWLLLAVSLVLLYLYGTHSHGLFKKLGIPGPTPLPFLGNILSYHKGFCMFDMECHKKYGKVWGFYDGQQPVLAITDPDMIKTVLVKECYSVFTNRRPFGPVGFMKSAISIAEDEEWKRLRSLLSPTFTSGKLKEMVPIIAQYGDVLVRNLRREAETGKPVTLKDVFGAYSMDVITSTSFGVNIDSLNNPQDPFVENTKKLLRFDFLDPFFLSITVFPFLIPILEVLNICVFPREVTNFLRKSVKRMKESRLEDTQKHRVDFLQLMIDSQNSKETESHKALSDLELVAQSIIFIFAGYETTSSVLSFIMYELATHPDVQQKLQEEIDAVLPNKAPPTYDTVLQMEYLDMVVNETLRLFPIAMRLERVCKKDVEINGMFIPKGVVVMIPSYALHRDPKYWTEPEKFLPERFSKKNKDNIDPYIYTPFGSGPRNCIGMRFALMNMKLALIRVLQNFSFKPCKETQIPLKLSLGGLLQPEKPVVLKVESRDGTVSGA

[4] = Determination of pharmacokinetics in mice; format: in vivo, swiss mice
Procedure: Treatment of animal: Healthy swiss mice of both the sexes (25-30) were used. The animals were kept (3/cage) under controlled conditions (temp 26±2° C.; relative humidity 50±5%; 12 h light/dark cycle) and maintained on pelleted rodent diet […]. Ashirwad Industries Ltd. Chandigarh, India). Water was provided ad libitum. Compound I was solubilised in 2% gum acacia by trituration and diluted with normal saline to obtained desired concentration. The compound was administered orally (20 mg/kg BW) or via intravenous route (10 mg/kg bw).
Sampling time: Blood samples were collected at 0, 5, 15 and 30 min, and 1, 2, 4, 6, 8, 16 and 24 hrs post-administration after oral/iv route in pre-labeled heparinised tubes and centrifuged (3500 rpm×10 minutes) to obtain the plasma. A total of 6 animals were used per time point.
(i) Aliquots of plasma (250 ul) were mixed with ethyl acetate (3 ml), vortexed for two minutes (2500 rpm) and centrifuged at 5000 rpm for 10 min. The organic layer was collected and evaporated to dryness using solvent evaporator (Model: SPD 111V, Thermo Electron Corporation, MA). The dried samples were reconstituted in mobile phase for HPLC analysis.
(2) Calibration standards were prepared from aliquots of plasma collected from untreated animals which were spiked with molecule I (0.25 μg-10 μg/ml). […] The extraction efficiency of the molecule from plasma matrix was 90-93%.
HPLC determinations HPLC determinations were done on Thermofinningan chromatograph (Model: SpectraSystem SCM 1000 equipped with quaternary pump P-4000; autosampler AS 3000; UV 6000 LP): diode array detector). Molecule D8 was run under the following conditions:
Column: RP-8 (5 um); Mobile Phase: Acetonitrile:Water (51:49); Wavelength: 272 nm Flow Rate: 1 ml/min; Retention time: 8.035 min; The lower limit of detection (LOD): 3.5 ng/ml; limit of quantitation (LOQ): 10 ng/ml.
Bioavailability indices. A concentration-time curve for Molecule D8 was established and pharmacokinetic parameters (Cmax, Tmax, AUC0-24, Clerance (Cl) and Volume of Distribution (vd) were determined by using a software (PK Solutions version 2.0; Summit Research Services, USA).
Absolute bioavailability was determined using the following formula: AUCoral×doseiv/AUCv×Doseoral.

[5] = tested on: Male wistar rats; test: Blood pressure, heart rate and respiratory rate by telemetry; format: in vivo; design: RR: unit not given beside the values; conditions: for RR / HR / DBP / SBP: 50 mg/kg i.v.; for HR: in bpm (unit assumed); for DBP / SBP: in mmHg (unit assumed)
Procedure: Male wistar rats of approximately 6 months of age were anaesthetised with a mixture of ketamine (40 mg/kg) and xylazine (5 mg/kg) and fitted with TL11M2-C50PXT telemetry transmitters (Data Sciences Intl., St. Paul, Minn., USA) in the peritoneal cavity by performing surgery. Experiments were performed 15 days after surgery. Individual rats were placed in plastic cage on top of a receiver (RLA 2000, Data Science) for the measurement of systolic BP, diastolic BP, Heart rate and respiratory rate. The signals from the transmitters were received by two RLA 2000 receivers and transmitted via a Data Exchange Matrix to a Dataquest PCI card CQ 2240 in the computer. The data were interpreted by the Dataquest program A.R.T. version 2.2 Gold Version.

COc1cc(C=O)cc2c1[nH]c1ccccc12 [Compound I, 1-methoxy-3-formyl-9H carbazole]
% Transport (Mean ± SEM) ([1]; 12.5 mg/kg p.o.): 74.15 ± 3.4%
% Transport (Mean ± SEM) ([1]; 25 mg/kg p.o.): 76.6 ± 6.7%
% Transport (Mean ± SEM) ([1]; 50 mg/kg p.o.): 77.12 ± 1.49%
change in charcoal powder transporting ratio vs control ([1]; 12.5, 25 and 50 mg/kg): no significant change in charcoal powder transporting ratio
Reaction time ([2]; 12.5 mg/kg p.o., 0 hr): 11.08 ± 1.60 s
Reaction time ([2]; 12.5 mg/kg p.o., 1 hr): 10.62 ± 1.64 s
Reaction time ([2]; 25 mg/kg p.o., 0 hr): 13.58 ± 2.15 s
Reaction time ([2]; 25 mg/kg p.o., 1 hr): 14.62 ± 4.67 s
Reaction time ([2]; 50 mg/kg p.o., 0 hr): 14.38 ± 1.87 s
Reaction time ([2]; 50 mg/kg p.o., 1 hr): 14.34 ± 1.07 s
change in the reaction time on a hot plate ([2]; 12.5, 25 and 50 mg/kg orally, 55±1° C.): did not show any significant change in the reaction time
metabolism [3]: metabolized by CYP 3A4 (liver)
amounts detected in urine ([4]; after 24 hrs): negligible amounts
plasma clearance rate ([4]; mouse, in vivo): good plasma clearance rate
volume of distribution ([4]; mouse, in vivo): volume of distribution is high
intact drug stays in the circulation ([4]; oral administration): ≤ 12 h
RR ([5]; 0 mins): 89.4 ± 1.4
HR ([5]; 0 mins): 242.1 ± 9.7
DBP ([5]; 0 mins): 71.7 ± 10.2
SBP ([5]; 0 mins): 112 ± 2.89
RR ([5]; 1 hr): 85.77 ± 8.9
HR ([5]; 1 hr): 309.1 ± 45.9
DBP ([5]; 1 hr): 82.1 ± 4.5
SBP ([5]; 1 hr): 115.4 ± 3.6
RR ([5]; 2 hr): 89.5 ± 2.56
HR ([5]; 2 hr): 261 ± 13.8
DBP ([5]; 2 hr): 77.5 ± 6.07
SBP ([5]; 2 hr): 114.5 ± 2.8
RR ([5]; 3 hr): 84.5 ± 3.5
HR ([5]; 3 hr): 272.7 ± 17.5
DBP ([5]; 3 hr): 78.5 ± 8.1
SBP ([5]; 3 hr): 110.2 ± 4.5
RR ([5]; 4 hr): 96.3 ± 2.1
HR ([5]; 4 hr): 273.1 ± 17.06
DBP ([5]; 4 hr): 75.9 ± 8.2
SBP ([5]; 4 hr): 108.7 ± 5.2
change in blood pressure, heart rate and respiratory rate ([5]; rats, before and after treatment): No significant change in blood pressure, heart rate and respiratory rate
